For this test, the system named is BDF1 mice, B16 melanoma ip, median survival T/C. Nature of the test: NCI In Vivo Anticancer Drug Screen. Data for tumor model B16 Melanoma (intraperitoneal) in B6D2F1 (BDF1) mice. Conditions: endpoint: median survival time, higher = longer survival. The method in brief:
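Tumor-bearing mice received test compound or vehicle. Survival or tumor size was then measured in both groups. The treated-group figure was divided by the control-group figure.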

Where [1] appears, read: dose: 100.0 mg/kg/injection, schedule: Q01DX009 (ip), vehicle: Klucel (hydroxypropylcellulose) (HPC).
Setting [2] is: dose: 200.0 mg/kg/injection, schedule: Q01DX009 (ip), vehicle: Klucel (hydroxypropylcellulose) (HPC).
[3] abbreviates: dose: 400.0 mg/kg/injection, schedule: Q01DX009 (ip), vehicle: Klucel (hydroxypropylcellulose) (HPC).
[4] abbreviates: dose: 50.0 mg/kg/injection, schedule: Q01DX009 (ip), vehicle: saline with Tween-80.
Setting [5] is: dose: 6.25 mg/kg/injection, schedule: Q01DX009 (ip), vehicle: Klucel (hydroxypropylcellulose) (HPC).
[6] abbreviates: dose: 12.5 mg/kg/injection, schedule: Q01DX009 (ip), vehicle: Klucel (hydroxypropylcellulose) (HPC).
Where [7] appears, read: dose: 25.0 mg/kg/injection, schedule: Q01DX009 (ip), vehicle: Klucel (hydroxypropylcellulose) (HPC).
Setting [8] is: dose: 12.5 mg/kg/injection, schedule: Q01DX009 (ip), vehicle: saline.
Setting [9] is: dose: 25.0 mg/kg/injection, schedule: Q01DX009 (ip), vehicle: saline.
[10] abbreviates: dose: 100.0 mg/kg/injection, schedule: Q01DX009 (ip), vehicle: saline.
The mark [11] stands for this setting: dose: 200.0 mg/kg/injection, schedule: Q01DX009 (ip), vehicle: saline.
Setting [12] is: dose: 50.0 mg/kg/injection, schedule: Q01DX009 (ip), vehicle: Klucel (hydroxypropylcellulose) (HPC).

Values joined by “and” are separate entries in the source; they are usually repeats but may differ in a detail not shown here. Equal entries are not always repeated. Toxic doses and inconclusive results are not listed. Peptide text beside a SMILES is read from it. * marks the point of attachment. Trt = c1ccc(C(c2ccccc2)(c2ccccc2)*)cc1; Cbz = O=C(OCc1ccccc1)*

Consider 25 molecules from PubChem BioAssay AID192 (DTP/NCI, 2004).

As to `Cc1c(Cl)cccc1NC(=O)c1cccc(C(=O)Nc2cccc(Cl)c2C)c1`, the T/C under setting [1] is 106 % of control, the T/C under setting [2] was 103 % of control and the T/C under setting [3] is 93 % of control.

Regarding `CC(C)CC(Br)C(=O)NCC(=O)O` (stereo not given), the T/C runs as follows: (dose: 25.0 mg/kg/injection, schedule: Q01DX009 (ip), vehicle: saline with Tween-80) 95 % of control; under setting [4], 95 % of control.

As for `CCCc1c2cc(OC)c(OC)cc2cc2c3cc(OC)c(OC)cc3cc[n+]12` (tested in a mixture with another compound), the T/C runs as follows: under setting [5], 100 % of control; under setting [6], 96 % of control; under setting [7], 100 % of control.

As for `Clc1ccc(Br)c(Cl)c1`, the T/C was 93 % of control under setting [1], 93 % of control under setting [2] and 93 % of control under setting [3].

Turning to `CCN(CC)C(=O)c1cccnc1`, the T/C reads like this: under setting [8], 109 % of control; under setting [9], 123 % of control; (dose: 50.0 mg/kg/injection, schedule: Q01DX009 (ip), vehicle: saline) 107 % of control; under setting [10], 103 % of control; under setting [11], 102 % of control.

As for `COC(=O)C(CSC(c1ccccc1)(c1ccccc1)c1ccccc1)NC(=O)C(CC(N)=O)NC(=O)OCc1ccccc1` (stereo not drawn) (Cbz-Asn-Cys(Trt)-OMe; configuration not given here), the T/C (dose: 12.5 mg/kg/injection, schedule: Q01DX009 (ip), vehicle: distilled water + Tween-80) is 108 % of control and 110 % of control; the T/C (dose: 25.0 mg/kg/injection, schedule: Q01DX009 (ip), vehicle: distilled water + Tween-80) was 102 % of control and 117 % of control; the T/C (dose: 50.0 mg/kg/injection, schedule: Q01DX009 (ip), vehicle: distilled water + Tween-80) is 109 % of control; the T/C (dose: 100.0 mg/kg/injection, schedule: Q01DX009 (ip), vehicle: distilled water + Tween-80) was 113 % of control; the T/C (dose: 200.0 mg/kg/injection, schedule: Q01DX009 (ip), vehicle: distilled water + Tween-80) is 116 % of control.

With `O=C(O)c1cccc2c(=O)c3ccccc3sc12`, the T/C under setting [1] is 100 % of control, the T/C under setting [2] was 100 % of control and the T/C under setting [3] is 93 % of control.

Regarding `CN1CN(C)CN(C)C1`, the T/C under setting [9] was 118 % of control.

For the molecule `COc1cccc(/C=N\N=C\c2cccc(OC)c2OC)c1OC`, the T/C (dose: 6.25 mg/kg/injection, schedule: Q01DX009 (ip), vehicle: saline) is 95 % of control and the T/C under setting [8] is 97 % of control.

Regarding `CCN(CC)C(=O)C1CN2CCc3cc(OC)c(OC)cc3C2CC1OC(C)=O` (stereo not given), the T/C is 95 % of control (dose: 0.39 mg/kg/injection, schedule: Q01DX009 (ip), vehicle: Klucel (hydroxypropylcellulose) (HPC)); 86 % of control (dose: 0.78 mg/kg/injection, schedule: Q01DX009 (ip), vehicle: Klucel (hydroxypropylcellulose) (HPC)); 96 % of control (dose: 1.56 mg/kg/injection, schedule: Q01DX009 (ip), vehicle: Klucel (hydroxypropylcellulose) (HPC)); 104 % of control (dose: 3.12 mg/kg/injection, schedule: Q01DX009 (ip), vehicle: Klucel (hydroxypropylcellulose) (HPC)); 100 % of control under setting [5]; 89 % of control under setting [12]. For the same molecule, the T/C under setting [1] is 100 % of control.

With `Cc1nc(/N=N/c2nc(C)c(C)[nH]2)[nH]c1C`, the T/C under setting [1] is 102 % of control, the T/C under setting [2] is 101 % of control and the T/C under setting [3] is 96 % of control.

Take `O=C(O)CC1(CC(=O)O)CCCCC1`: the T/C is, setting by setting: under setting [4], 100 % of control; (dose: 100.0 mg/kg/injection, schedule: Q01DX009 (ip), vehicle: saline with Tween-80) 98 % of control.

As for `Nc1c(Br)cc2c(c1Br)Cc1cc(Cl)ccc1-2`, the T/C (dose: 6.25 mg/kg/injection, schedule: Q01DX009 (ip), vehicle: other) was 108 % of control; the T/C (dose: 12.5 mg/kg/injection, schedule: Q01DX009 (ip), vehicle: other) was 96 % of control; the T/C (dose: 25.0 mg/kg/injection, schedule: Q01DX009 (ip), vehicle: other) was 96 % of control; the T/C under setting [12] was 94 % of control; the T/C (dose: 50.0 mg/kg/injection, schedule: Q01DX009 (ip), vehicle: other) is 89 % of control; the T/C under setting [1] was 107 % of control. Further, the T/C runs as follows: (dose: 100.0 mg/kg/injection, schedule: Q04DX003 (ip), vehicle: other) 94 % of control; (dose: 200.0 mg/kg/injection, schedule: Q04DX003 (ip), vehicle: other) 86 % of control.

With `C/C(=C\c1ccccc1Cl)[N+](=O)[O-]`, the T/C by setting is: (dose: 37.5 mg/kg/injection, schedule: Q01DX009 (ip), vehicle: Klucel (hydroxypropylcellulose) (HPC)) 96 % of control; (dose: 75.0 mg/kg/injection, schedule: Q01DX009 (ip), vehicle: Klucel (hydroxypropylcellulose) (HPC)) 96 % of control.

As for `COc1ccc(CC2C(=O)NC(C)C(=O)N(C)C3C(=O)N(C)C(Cc4ccc(O)c(c4)Oc4ccc(cc4)C3O)C(=O)NC(C)C(=O)NC(C)C(=O)N2C)cc1` (stereo not given), the T/C is, setting by setting: (dose: 0.5 mg/kg/injection, schedule: Q01DX009 (ip), vehicle: saline with Tween-80) 152 % of control; (dose: 125.0 micrograms/kg/injection, schedule: Q01DX009 (ip), vehicle: saline with Tween-80) 118 % of control.

For the molecule `C=C1C(=O)OC2CC(C)C3(O)CCC(C)(CC(OC(=O)C(C)C)C12)O3` (stereo not given), the T/C reads like this: under setting [12], 99 % of control; under setting [1], 97 % of control; under setting [2], 98 % of control.

For `O=[N+]([O-])O.O=[N+]([O-])O.[O]=[Zr]`, the T/C was 97 % of control (dose: 12.5 mg/kg/injection, schedule: Q04DX003 (ip), vehicle: saline); 90 % of control (dose: 25.0 mg/kg/injection, schedule: Q04DX003 (ip), vehicle: saline); 95 % of control (dose: 50.0 mg/kg/injection, schedule: Q04DX003 (ip), vehicle: saline).

With `COC1C(O)CC(OC2CC(OC3CC(O[C@@H]4C(=O)c5c(cc6cc(OC7CC(OC8CC(O)C(O)C(C)O8)C(O)C(C)O7)c(C)c(O)c6c5O)C[C@H]4[C@H](OC)C(=O)[C@@H](O)[C@@H](C)O)OC(C)C3O)OC(C)C2O)OC1C` (stereo not given in full), the T/C is 106 % of control (dose: 188.0 micrograms/kg/injection, schedule: Q01DX009 (ip), vehicle: water); 105 % of control (dose: 375.0 micrograms/kg/injection, schedule: Q01DX009 (ip), vehicle: water); 121 % of control (dose: 750.0 micrograms/kg/injection, schedule: Q01DX009 (ip), vehicle: water).

Turning to `CCCCCCC(=O)O[C@H]1CC[C@H]2[C@@H]3CCC4=CC(=O)CC[C@]4(C)[C@H]3CC[C@]12C`, the T/C runs as follows: (dose: 10.0 mg/kg/injection, schedule: Q01DX009 (ip), vehicle: Klucel (hydroxypropylcellulose) (HPC)) 96 % of control; (dose: 20.0 mg/kg/injection, schedule: Q01DX009 (ip), vehicle: Klucel (hydroxypropylcellulose) (HPC)) 110 % of control; (dose: 40.0 mg/kg/injection, schedule: Q01DX009 (ip), vehicle: Klucel (hydroxypropylcellulose) (HPC)) 89 % of control; (dose: 80.0 mg/kg/injection, schedule: Q01DX009 (ip), vehicle: Klucel (hydroxypropylcellulose) (HPC)) 103 % of control.

With `C#CCOCC1CN(C)C(=O)O1` (stereo not given), the T/C is, setting by setting: under setting [9], 109 % of control; under setting [10], 102 % of control; under setting [11], 109 % of control; (dose: 400.0 mg/kg/injection, schedule: Q01DX009 (ip), vehicle: saline) 107 % of control.

For the molecule `c1ccc(CSc2ncnc3nc[nH]c23)cc1`, the T/C by setting is: under setting [7], 95 % of control; (dose: 25.0 mg/kg/injection, schedule: Q04DX003 (ip), vehicle: Klucel (hydroxypropylcellulose) (HPC)) 95 % of control; (dose: 50.0 mg/kg/injection, schedule: Q04DX003 (ip), vehicle: Klucel (hydroxypropylcellulose) (HPC)) 100 % of control; (dose: 100.0 mg/kg/injection, schedule: Q04DX003 (ip), vehicle: Klucel (hydroxypropylcellulose) (HPC)) 97 % of control.

As for `CC(C)/C=C(\C#N)C(=O)O`, the T/C under setting [6] was 100 % of control, the T/C under setting [7] was 100 % of control and the T/C under setting [12] was 100 % of control.

For the molecule `O=C(C(=O)c1cc(Br)ccc1O)c1cc(Br)ccc1O`, the T/C was 96 % of control under setting [1] and 106 % of control under setting [2].

For the molecule `Cc1cccc(NC(=O)Nc2ccc(Cl)cc2)c1C`, the T/C is 112 % of control (dose: 100.0 mg/kg/injection, schedule: Q01DX009 (ip), vehicle: gum acacia) and 107 % of control (dose: 200.0 mg/kg/injection, schedule: Q01DX009 (ip), vehicle: gum acacia).

Take `CS(=O)(=O)OCCCOS(C)(=O)=O`: the T/C under setting [6] is 91 % of control.
